Experimental data as given in patent publication US20090124817A1 (The Industry & Academic Cooperation in Chungnam National …, priority 2007, published 2009).

What was measured:
[1] = Specific surface area by gas adsorption (BET); assay type: physicochemical; conditions: BET equation
Procedure: (§1) The particle size and particle size distribution of samples were determined by dynamic light scattering (DLS) using electrophoretic light scattering spectrophotometer (ELS-8000, Otsuka Electronics, Japan) at a fixed angle of 90° and at room temperature. The samples were dispersed in mineral oil (Macrol 52, Exxon Mobil Co., USA) and sonicated before measurement. The particle size and particle size distribution of samples were also determined with a Sympatec laser diffraction analyzer (HELOS/RODOS, Clausthal-Zellerfeld, Germany) consisted of a laser sensor HELOS and a RODOS dry-powder air-dispersion system. The specific surface area was determined using the gas adsorption method. Calculation is based on the BET equation. Surface Area Analyzer ASAP 2010 (Micromeritics Instrument Corporation, USA) was used.

[2] = Particle size by dynamic light scattering / laser diffraction; assay type: physicochemical
Procedure: as §1

[3] = DLS, dispersed in mineral oil, room temperature

| Compound | Specific surface area [1] | Mean particle size [2, 3] | Mean particle size ([2]; DLS / laser diffraction) |
| --- | --- | --- | --- |
| CC(C)c1c(C(=O)Nc2ccccc2)c(-c2ccccc2)c(-c2ccc(F)cc2)n1CC[C@@H](O)C[C@@H](O)CC(=O)[O-].CC(C)c1c(C(=O)Nc2ccccc2)c(-c2ccccc2)c(-c2ccc(F)cc2)n1CC[C@@H](O)C[C@@H](O)CC(=O)[O-].[Ca+2] [Example 9, atorvastatin calcium] | 47.82 m^2/g | 265 nm |  |
| CC(C)c1c(C(=O)Nc2ccccc2)c(-c2ccccc2)c(-c2ccc(F)cc2)n1CC[C@@H](O)C[C@@H](O)CC(=O)[O-].CC(C)c1c(C(=O)Nc2ccccc2)c(-c2ccccc2)c(-c2ccc(F)cc2)n1CC[C@@H](O)C[C@@H](O)CC(=O)[O-].[Ca+2] [Comparative Example 1, atorvastatin calcium, reference compound] | 0.95 m^2/g |  | 7.31 μm |
| CC(C)c1c(C(=O)Nc2ccccc2)c(-c2ccccc2)c(-c2ccc(F)cc2)n1CC[C@@H](O)C[C@@H](O)CC(=O)[O-].CC(C)c1c(C(=O)Nc2ccccc2)c(-c2ccccc2)c(-c2ccc(F)cc2)n1CC[C@@H](O)C[C@@H](O)CC(=O)[O-].[Ca+2] [Example 25, atorvastatin calcium] | 120.35 m^2/g | 65 nm |  |
| CC(C)c1c(C(=O)Nc2ccccc2)c(-c2ccccc2)c(-c2ccc(F)cc2)n1CC[C@@H](O)C[C@@H](O)CC(=O)[O-].CC(C)c1c(C(=O)Nc2ccccc2)c(-c2ccccc2)c(-c2ccc(F)cc2)n1CC[C@@H](O)C[C@@H](O)CC(=O)[O-].[Ca+2] [Example 10, atorvastatin calcium] | 30.88 m^2/g | 727 nm |  |
| CC(C)c1c(C(=O)Nc2ccccc2)c(-c2ccccc2)c(-c2ccc(F)cc2)n1CC[C@@H](O)C[C@@H](O)CC(=O)[O-].CC(C)c1c(C(=O)Nc2ccccc2)c(-c2ccccc2)c(-c2ccc(F)cc2)n1CC[C@@H](O)C[C@@H](O)CC(=O)[O-].[Ca+2] [Example 18, atorvastatin calcium] | 79.78 m^2/g | 155 nm |  |
| CC(C)c1c(C(=O)Nc2ccccc2)c(-c2ccccc2)c(-c2ccc(F)cc2)n1CC[C@@H](O)C[C@@H](O)CC(=O)[O-].CC(C)c1c(C(=O)Nc2ccccc2)c(-c2ccccc2)c(-c2ccc(F)cc2)n1CC[C@@H](O)C[C@@H](O)CC(=O)[O-].[Ca+2] [Example 2, atorvastatin calcium] | 90.28 m^2/g | 179 nm |  |
| CC(C)c1c(C(=O)Nc2ccccc2)c(-c2ccccc2)c(-c2ccc(F)cc2)n1CC[C@@H](O)C[C@@H](O)CC(=O)[O-].CC(C)c1c(C(=O)Nc2ccccc2)c(-c2ccccc2)c(-c2ccc(F)cc2)n1CC[C@@H](O)C[C@@H](O)CC(=O)[O-].[Ca+2] [Starting material, atorvastatin calcium, reference compound] | 14.56 m^2/g |  | 3.87 μm |
